A short description of data set [1]: Microsomal metabolic stability in Beagle dog liver microsomes assessed as half life […] by LC-MS/MS analysis. In kind it is ADME, Canis lupus familiaris, Microsome. Background: Microsomes from liver hold many membrane-bound enzymes, among them those of drug oxidation.
Data set [2] can be described thus: AUC(0 to t) in Beagle dog at 3.6 mg/kg, po measured for 24 hrs by LC-MS/MS analysis. Format: ADME, organism-based, Canis lupus familiaris. As to conditions: in vivo.
Data set [3] can be described thus: Oral bioavailability in Beagle dog at 3.6 mg/kgm measured for 24 hrs by LC-MS/MS analysis. Format: ADME, organism-based, Canis lupus familiaris. Particulars: in vivo, dose 3.6 mg/kg.
Data set [4] is described as follows: AUC(0 to t) in ICR mouse plasma at 5 mg/kg, po measured for 60 mins by LC-MS/MS analysis. Format: ADME, organism-based.
Data set [5] is described as follows: Oral bioavailability in ICR mouse at 5 mg/kg. Particulars: in vivo. Format: ADME, organism-based.
A short description of data set [6]: AUC(0 to t) in Sprague-Dawley rat at 300 mg/kg, po measured up to 24 hrs by LC-MS/MS analysis. In kind it is ADME, organism-based. As to conditions: in vivo.
Data set [7] in a line: Oral bioavailability in Sprague-Dawley rat at 20 mg/kg by LC-MS/MS analysis. Format: ADME, organism-based. Particulars: in vivo.
A short description of data set [8]: Oral bioavailability in Sprague-Dawley rat at 5 mg/kg by LC-MS/MA analysis. Format: ADME, organism-based. Particulars: in vivo.
The nature of data set [9]: Toxicity in rat assessed as lethal dose. As to conditions: in vivo.
Data set [10] can be described thus: AUC(0 to t) in Sprague-Dawley rat at 20 mg/kg, po measured up to 24 hrs by LC-MS/MS analysis. In kind it is ADME, organism-based. As to conditions: in vivo.
The nature of data set [11]: Metabolic stability in rat liver microsomes assessed as half life measured for 60 mins by LC-MS/MS analysis. Format: ADME, Microsome.
Data set [12] is described as follows: Acute toxicity in po dosed ICR mouse assessed as lethal dose. As to conditions: in vivo. Format: organism-based.
Data set [13] can be described thus: Metabolic stability in human liver microsome assessed as half life. As to conditions: liver microsomes.
Data set [14] in a line: Oral bioavailability in human at 2 microg/kg measured for 60 mins by LC-MS/MS analysis. As to conditions: in vivo, 0.002 mg/kg.
Data set [15] can be described thus: AUC(0 to t) in ICR mouse plasma at 2 microg/kg, po measured for 60 mins by LC-MS/MS analysis. As to conditions: 0.002 mg/kg.
The nature of data set [16]: AUC(0 to t) in Sprague-Dawley rat at 5 mg/kg, po measured up to 24 hrs by LC-MS/MS analysis. In kind it is ADME, organism-based. As to conditions: in vivo.
Data set [17] is described as follows: Toxicity in ip dosed rat assessed as lethal dose. Format: organism-based. As to conditions: in vivo.
A short description of data set [18]: Toxicity in iv dosed rat assessed as lethal dose. Particulars: in vivo. Format: organism-based.

For `C[C@@H]1C(=O)O[C@H]2[C@@H](O)C34[C@H]5C[C@@H](C(C)(C)C)C36[C@@H](OC(=O)[C@@H]6O)O[C@@]4(C(=O)O5)[C@@]12O` (stereo partly drawn), the half-life (usually the time in which the quantity being followed falls by half) in data set [1] is 1 h. The AUC(0-t) (usually the area under the concentration-time curve up to a stated or last time point) at 24 h in [2] is 356 µg·h/mL. Also, the bioavailability (in general, the share of a dose that reaches the circulation, judged against a reference dose that is usually intravenous) in data set [3] came to 17%.
`O=C(Nc1c2c(cc3c1CCC3)CCC2)NS(=O)(=O)c1ccc(OCCOCCOCCOCCN2C(=O)/C(=C\c3cc(Br)c(O)c(Br)c3)c3cc(I)ccc32)cc1` had an area under the curve AUC(0-t) at 1 h in data set [4] of 551 µg·h/mL. Besides, the bioavailability in data set [5] came out at 19%.
`O=C1c2cccc(O)c2C(=O)c2c(O)cc(CO)cc21` [ALOE-EMODIN]: in data set [6], the exposure AUC(0-t) at 24 h is 42.8 µg·h/mL.
In the case of `O=c1c(O)c(-c2ccc(O)cc2)oc2cc(O)cc(O)c12` [KAEMPFEROL], the bioavailability in data set [7] turned out to be 2%; in data set [8] it was 7%. Further, the median lethal dose (LD50) (as a rule, the dose expected to kill half of the subjects tested) in data set [9] is 3810 mg/kg. Moreover, the AUC(0-t) at 24 h in data set [10] worked out at 234 µg·h/mL.
Consider `Cc1cnc(-c2ccccc2C(C)C)nc1NCc1ccc(-n2ccnn2)cc1`, for which, in data set [11], the half-life was 0.2 h.
Consider `COc1cc(/C=C/C(=O)O)ccc1O` [FERULATE], for which the LD50 in data set [12] was determined as 3200 mg/kg.
On to `Cc1cccc([C@H](C)c2cnc[nH]2)c1C` [DEXMEDETOMIDINE], for which the half-life in data set [13] was 2 h. In data set [14], this molecule showed a bioavailability at 1 h of 15.6%. In [15], the AUC(0-t) at 1 h was 0.45 µg·h/mL.
For the molecule `O=c1c(-c2ccc(O)cc2)coc2c([C@@H]3O[C@H](CO)[C@@H](O)[C@H](O)[C@H]3O)c(O)ccc12` [PUERARIN], the AUC(0-t) at 24 h in data set [16] came to 109 µg·h/mL. Moreover, the 50% lethal dose (LD50) in [17] is 1410 mg/kg; in [18], 634 mg/kg.

The values above are taken from ChEMBL document CHEMBL6134825, “Mechanisms and therapeutic strategies for NLRP3 degradation via post-translational modifications in ubiquitin-proteasome and autophagy lysosomal pathway” (Eur J Med Chem, 2025).
